Experiments:
Experiment in all cases: Protein kinase inhibition assay
[1] = target: JNK2α2(h) (Homo sapiens, UniProt P45984); assay type: biochemical; details: read-out: percent residual activity of JNK2α2(h)
Experimental: (§1) Certain compounds were tested for activity in protein kinase inhibition assays. All substrates were dissolved and diluted to working stocks in de-ionized water, apart from histone H1 (10× working stock in 20 mM MOPS pH 7.0), PDKtide (10× working stock in 50 mM Tris pH 7.0) ATF2 (which is typically stored at a 20× working stock in 50 mM Tris pH 7.5, 150 mM NaCl, 0.1 mM EGTA, 0.03% Brij-35, 50% glycerol, 1 mM benzamidine, 0.2 mM PMSF and 0.1% R-mercaptoethanol), KKLNRTLSFAEPG (SEQ ID NO:203) and RRRLSFAEPG (SEQ ID NO:204) (50 mM HEPES pH 7.4) and GGEEEEYFELVKKKK (SEQ ID NO:205) (20 mM MOPS pH 7.0). All kinases were pre-diluted to a 10× working concentration prior to addition into the assay. The composition of the dilution buffer for each kinase is detailed below.
In a final reaction volume of 25 μl, JNK2α2 (h) (5-10 mU) is incubated with 50 mM Tris pH 7.5, […], 0.1% R-mercaptoethanol, 3 μM ATF2, 10 mM MgAcetate and [gamma-33P-ATP] (specific activity approx. 500 cpm/pmol, concentration as required). The reaction is initiated by the addition of the MgATP mix. After incubation for 40 minutes at room temperature, the reaction is stopped by the addition of 5 μl of a 3% phosphoric acid solution. 10 μl of the reaction is then spotted onto a P30 filtermat and washed three times for 5 minutes in 75 mM phosphoric acid and once in methanol prior to drying and scintillation counting.

[2] = target: Ros(h) (Homo sapiens, UniProt P08922); assay type: biochemical; details: read-out: percent residual activity of Ros(h)
Experimental: as §1
(§2) In a final reaction volume of 25 μl, Ros (h) (5-10 mU) is incubated with 8 mM MOPS pH 7.0, 0.2 mM EDTA, 10 mM MnCl2, 250 μM KKKSPGEYVNIEFG (SEQ ID NO:207), 10 mM MgAcetate and [gamma-33P-ATP] (specific activity approx. 500 cpm/pmol, concentration as required). The reaction is initiated by the addition of the MgATP mix. After incubation for 40 minutes at room temperature, the reaction is stopped by the addition of 5 μl of a 3% phosphoric acid solution. […]

[3] = target: PKA(b) (Bos taurus, UniProt P00517); assay type: biochemical, bovine; details: read-out: percent residual activity of PKA(b)
Experimental: as §1
(§3) In a final reaction volume of 25 μl, PKA (b) (5-10 mU) is incubated with 8 mM MOPS pH 7.0, 0.2 mM EDTA, 30 μM LRRASLG (SEQ ID NO:209) (Kemptide), 10 mM MgAcetate and [y-33P-ATP] (specific activity approx. 500 cpm/pmol, concentration as required). The reaction is initiated by the addition of the MgATP mix. After incubation for 40 minutes at room temperature, the reaction is stopped by the addition of 5 μl of a 3% phosphoric acid solution. 10 μl of the reaction is then spotted onto a P30 filtermat and washed three times for 5 minutes in 50 mM phosphoric acid and once in methanol prior to drying and scintillation counting.

[4] = target: PAK2(h) (Homo sapiens, UniProt Q13177); assay type: biochemical; details: read-out: percent residual activity of PAK2(h)
Experimental: as §1
as §3, with “μl, PAK2 (h)” for “μl, PKA (b)”, “μM […]” for “μM LRRASLG”, “ID NO:222),” for “ID NO:209) (Kemptide),”, “and [gamma-33P-ATP]” for “and [y-33P-ATP]”, “in 75” for “in 50”

[5] = target: Hck(h) (Homo sapiens, UniProt P08631); assay type: biochemical; details: read-out: percent residual activity of Hck(h)
Experimental: as §1
as §2, with “Hck” for “Ros”, “EDTA,” for “EDTA, 10 mM MnCl2,”, “KVEKIGEGTYGVVYK (Cdc2 peptide)” for “KKKSPGEYVNIEFG”, “NO:211),” for “NO:207),”

[6] = target: MRCKβ(h) (Homo sapiens, UniProt Q9Y5S2); assay type: biochemical; details: read-out: percent residual activity of MRCKβ(h)
Experimental: as §1
as §3, with “μl, MRCKβ (h)” for “μl, PKA (b)”, “EDTA, 100” for “EDTA, 30”, “μM KKRNRTLTV” for “μM LRRASLG”, “ID NO:219),” for “ID NO:209) (Kemptide),”, “and [gamma-33P-ATP]” for “and [y-33P-ATP]”, “in 75” for “in 50”

PAK2(h), sequence (Q13177 whole entry): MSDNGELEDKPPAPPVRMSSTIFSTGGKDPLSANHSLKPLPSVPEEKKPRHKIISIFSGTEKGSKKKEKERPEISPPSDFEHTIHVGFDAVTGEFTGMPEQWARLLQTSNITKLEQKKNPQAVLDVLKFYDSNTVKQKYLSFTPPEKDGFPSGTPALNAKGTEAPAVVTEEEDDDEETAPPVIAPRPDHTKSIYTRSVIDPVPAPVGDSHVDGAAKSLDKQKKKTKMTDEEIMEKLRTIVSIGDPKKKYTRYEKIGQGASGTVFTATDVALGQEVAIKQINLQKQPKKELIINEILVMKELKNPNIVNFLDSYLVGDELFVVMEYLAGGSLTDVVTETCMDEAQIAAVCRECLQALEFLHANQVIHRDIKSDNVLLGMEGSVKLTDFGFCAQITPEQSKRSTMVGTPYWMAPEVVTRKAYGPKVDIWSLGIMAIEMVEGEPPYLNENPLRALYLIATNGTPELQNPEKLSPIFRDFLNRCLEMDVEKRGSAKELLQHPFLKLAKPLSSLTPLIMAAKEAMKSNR
JNK2α2(h), sequence (P45984 whole entry): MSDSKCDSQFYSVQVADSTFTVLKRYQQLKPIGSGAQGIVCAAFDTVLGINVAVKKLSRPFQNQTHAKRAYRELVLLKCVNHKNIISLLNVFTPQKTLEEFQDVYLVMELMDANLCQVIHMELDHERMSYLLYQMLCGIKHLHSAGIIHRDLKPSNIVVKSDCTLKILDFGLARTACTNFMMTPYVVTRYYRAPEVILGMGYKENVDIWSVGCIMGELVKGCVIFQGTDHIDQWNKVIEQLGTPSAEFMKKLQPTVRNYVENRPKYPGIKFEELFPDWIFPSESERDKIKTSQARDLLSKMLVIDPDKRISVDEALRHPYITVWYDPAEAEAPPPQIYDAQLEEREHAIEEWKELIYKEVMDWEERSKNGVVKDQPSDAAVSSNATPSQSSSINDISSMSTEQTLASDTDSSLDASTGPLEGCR
MRCKβ(h), sequence (Q9Y5S2 whole entry): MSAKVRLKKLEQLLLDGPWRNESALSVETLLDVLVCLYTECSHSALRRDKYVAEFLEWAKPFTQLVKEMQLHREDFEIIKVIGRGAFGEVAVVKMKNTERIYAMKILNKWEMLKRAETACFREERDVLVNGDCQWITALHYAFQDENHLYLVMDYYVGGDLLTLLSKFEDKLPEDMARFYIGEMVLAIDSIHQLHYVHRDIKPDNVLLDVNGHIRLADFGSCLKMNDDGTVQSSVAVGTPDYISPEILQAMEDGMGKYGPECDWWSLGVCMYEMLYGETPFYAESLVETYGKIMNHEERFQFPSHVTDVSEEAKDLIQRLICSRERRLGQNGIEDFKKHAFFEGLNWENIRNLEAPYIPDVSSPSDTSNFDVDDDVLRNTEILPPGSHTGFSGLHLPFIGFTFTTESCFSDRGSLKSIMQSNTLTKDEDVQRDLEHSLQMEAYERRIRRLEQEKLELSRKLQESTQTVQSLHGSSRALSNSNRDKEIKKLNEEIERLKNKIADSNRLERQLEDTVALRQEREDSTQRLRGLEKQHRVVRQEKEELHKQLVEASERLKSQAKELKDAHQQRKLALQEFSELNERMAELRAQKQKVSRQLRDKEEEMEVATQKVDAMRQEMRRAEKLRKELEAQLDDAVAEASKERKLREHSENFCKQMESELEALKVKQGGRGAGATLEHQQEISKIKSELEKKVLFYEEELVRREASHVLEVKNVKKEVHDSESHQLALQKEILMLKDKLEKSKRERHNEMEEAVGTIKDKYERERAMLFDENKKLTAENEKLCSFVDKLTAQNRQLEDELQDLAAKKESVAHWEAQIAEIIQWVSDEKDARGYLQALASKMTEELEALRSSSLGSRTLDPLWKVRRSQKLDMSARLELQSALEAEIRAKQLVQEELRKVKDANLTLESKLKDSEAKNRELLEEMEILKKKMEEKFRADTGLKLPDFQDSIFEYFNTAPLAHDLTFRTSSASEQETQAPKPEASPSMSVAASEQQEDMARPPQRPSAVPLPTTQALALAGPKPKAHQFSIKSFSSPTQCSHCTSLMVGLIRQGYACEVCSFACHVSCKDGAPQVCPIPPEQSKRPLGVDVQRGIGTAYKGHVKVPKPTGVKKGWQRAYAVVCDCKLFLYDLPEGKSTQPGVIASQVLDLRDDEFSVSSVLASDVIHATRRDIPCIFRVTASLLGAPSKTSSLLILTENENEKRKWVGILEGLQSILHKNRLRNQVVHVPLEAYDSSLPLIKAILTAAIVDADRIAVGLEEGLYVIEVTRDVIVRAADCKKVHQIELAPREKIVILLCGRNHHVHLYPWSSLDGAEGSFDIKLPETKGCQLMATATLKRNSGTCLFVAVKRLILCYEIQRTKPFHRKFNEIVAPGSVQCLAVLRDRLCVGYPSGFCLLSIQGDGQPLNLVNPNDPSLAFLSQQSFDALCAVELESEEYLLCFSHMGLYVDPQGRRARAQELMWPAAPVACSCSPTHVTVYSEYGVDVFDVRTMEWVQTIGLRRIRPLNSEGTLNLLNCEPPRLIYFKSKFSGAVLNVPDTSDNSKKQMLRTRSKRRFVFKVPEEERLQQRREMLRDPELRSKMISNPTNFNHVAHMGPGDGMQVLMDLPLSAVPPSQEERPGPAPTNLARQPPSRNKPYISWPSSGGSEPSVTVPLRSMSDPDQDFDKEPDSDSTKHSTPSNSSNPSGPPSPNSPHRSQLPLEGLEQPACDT
Hck(h), sequence (P08631 whole entry): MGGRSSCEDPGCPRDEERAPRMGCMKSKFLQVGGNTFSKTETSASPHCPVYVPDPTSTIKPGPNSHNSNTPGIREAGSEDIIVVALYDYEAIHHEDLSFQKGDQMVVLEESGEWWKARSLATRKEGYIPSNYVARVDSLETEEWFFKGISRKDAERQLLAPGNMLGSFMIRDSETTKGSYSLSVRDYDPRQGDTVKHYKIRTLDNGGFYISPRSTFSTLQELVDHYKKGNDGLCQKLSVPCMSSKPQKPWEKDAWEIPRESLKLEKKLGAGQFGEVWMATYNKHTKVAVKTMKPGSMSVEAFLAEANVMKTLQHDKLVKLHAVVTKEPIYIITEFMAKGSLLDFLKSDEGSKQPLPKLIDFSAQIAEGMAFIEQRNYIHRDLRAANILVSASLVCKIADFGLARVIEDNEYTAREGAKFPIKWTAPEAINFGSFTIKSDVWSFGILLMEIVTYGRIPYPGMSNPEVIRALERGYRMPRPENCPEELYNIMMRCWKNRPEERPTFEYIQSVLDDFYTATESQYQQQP

| remaining activity at 2.5 µM [1] | remaining activity at 2.5 µM [2] | remaining activity at 2.5 µM [3] | remaining activity at 2.5 µM [4] | remaining activity at 2.5 µM [5] | remaining activity at 2.5 µM [6] | SMILES |
| --- | --- | --- | --- | --- | --- | --- |
| 101% | 115% | 99% | 73% | 84% | 84% | CN1CCCC1CCNC(=O)c1cn2c3c(c(N4CCC(c5cnccn5)C4)c(F)cc3c1=O)Oc1cc3ccccc3cc1-2 (stereo not drawn) [Compound A-1] |
| 106% | 113% | 96% | 95% | 89% | 102% | CC(=O)N1CCN(c2ccc3c(=O)c(C(=O)NCCN4CCCC4)c4n(C)c5ccccc5n4c3n2)CC1 [Compound B-1] |

— patent US20070117770A1, “Human ribosomal DNA (rDNA) and ribosomal RNA (rRNA) nucleic acids and uses thereof” (Cylene Pharmaceuticals, Inc., priority 2005, published 2007)
